Source: article PMC1874649 (Nucleic Acids Research, 2007)

System: cyclin B1
Format: cell-based
Details: complexed with Pep-3, 2 µM, HeLa cells

control HypNA-pPNA sequence harbouring two mutations: sequence derived from Cyc-B1a harbouring two mismatches, TGC CAT CAG GCT TAG AGG (antisense TGCCATCAGGCTTAGAGG; HypNA-pPNA backbone (hydroxyproline/phosphono PNA), pattern not given here)
effect on cyclin B1 protein levels (control): no effect
